Twelve compounds from patent US5698522A, “6-position modified decapeptide LHRH antagonists” (Abbott Laboratories, priority 1995, dated 1997) can be followed below.

*1 amine or outer side, *2 acyl side, *3 side chain or, on linkers, in order; H or OH if unused. Where a SMILES comes first, the peptide text is derived from it. Side-chain parts run from the residue outwards. [ ]: non-standard residue; d: D form. The star is where a group is joined. NMePhe(4-NH(5-NH2-Trz-3-yl)) = CN[C@@H](Cc1ccc(Nc2n[nH]c(N)n2)cc1)C(=O)O; Shikimoyl = O=C(C1=C[C@@H](O)[C@@H](O)[C@H](O)C1)*; dPhe(4-Cl) = N[C@H](Cc1ccc(Cl)cc1)C(=O)O; d2Nal = N[C@H](Cc1ccc2ccccc2c1)C(=O)O; Lys(iPr) = CC(C)NCCCC[C@H](N)C(=O)O; NMeY = CN[C@@H](Cc1ccc(O)cc1)C(=O)O; Ethylenediamine = C(CN[*:2])N[*:1]; Pyrazinecarbonyl = O=C(c1cnccn1)*; d3Pal = N[C@H](Cc1cccnc1)C(=O)O; Nicotinoyl = O=C(c1cccnc1)*; dOrn = NCCC[C@@H](N)C(=O)O; 2Furoyl = O=C(c1ccco1)*; CO = O=C([*:1])[*:2]; Ahx = NCCCCCC(=O)O; X2 = O=C(c1ccoc1)*; azaGly = NNC(=O)O; βAla = NCCC(=O)O

This test concerns the target T1, LHRH receptor (Rattus norvegicus, UniProt P30969).
T1 construct: endogenous in cells
T1 sequence (P30969 1-327): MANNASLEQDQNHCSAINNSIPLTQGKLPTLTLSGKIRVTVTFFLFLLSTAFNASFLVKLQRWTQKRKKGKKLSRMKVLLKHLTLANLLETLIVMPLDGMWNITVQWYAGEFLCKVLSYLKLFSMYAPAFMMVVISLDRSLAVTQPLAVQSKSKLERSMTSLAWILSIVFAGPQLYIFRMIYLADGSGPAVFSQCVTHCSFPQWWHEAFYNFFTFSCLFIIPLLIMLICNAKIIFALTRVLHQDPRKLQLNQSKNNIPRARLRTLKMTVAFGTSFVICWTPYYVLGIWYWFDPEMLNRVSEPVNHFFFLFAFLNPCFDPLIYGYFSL
Kind of test: in vitro LHRH antagonist potency (pA2) against the agonist leuprolide. The conditions noted are these: negative logarithm of the antagonist concentration which shifts the response curve produced by the agonist leuprolide to two-fold higher concentration. The class given is cell-based. On the procedure: Representative compounds of the present invention were evaluated in in vitro tests for receptor binding (pKI) and for LHRH antagonist potency (pA2). The tests employed the methods detailed in F. Haviv, et al., J. Med. Chem., 32: 2340-2344 (1989). The receptor binding affinities (pKI) are the negative logarithms of the equilibtirum dissociation constants (pA2) are the negative logarithms of the concentration of antagonist which shift the response curve roduced by the agonist leuprolide to two-fold higher concentration. (Leuprolide is the LHRH agonist having the structure 5-oxo-Pro^1 -His^2 -Trp^3 -Ser^4 -Tyr^5 -D-Leu^6 -Leu^7 -Arg^8 -Pro^9 -NHEt and is disclosed and claimed in U.S. Pat. No. 4,005,063.) Typically pA2 values of 9.5 or greater are indicative of good LHRH antagonist potency.
The term Kb denotes the equilibrium dissociation constant of an antagonist, usually derived from a functional assay. `CC(=O)N[C@H](Cc1ccc2ccccc2c1)C(=O)N[C@H](Cc1ccc(Cl)cc1)C(=O)N[C@H](Cc1cccnc1)C(=O)N[C@@H](CO)C(=O)N(C)[C@@H](Cc1ccc(O)cc1)C(=O)N[C@H](CCCCNC(=O)[C@@H](C)NC(=O)C1=C[C@@H](O)[C@@H](O)[C@H](O)C1)C(=O)N[C@@H](CC(C)C)C(=O)N[C@@H](CCCNC(=N)N)C(=O)N1CCC[C@H]1C(=O)N[C@H](C)C(N)=O` [Example 48d, NAc-D2Nal^1 -D4ClPhe^2 -D3Pal^3 -Ser^4 -NMeTyr^5 -DLys(N-epsilon-D-Ala-Shikimyl)^6 -Leu^7 -Arg^8 -Pro^9 -DAla^10 NH2] (Ac-[d2Nal][dPhe(4-Cl)][d3Pal]S[NMeY][dK]([dA-Shikimoyl])LRP[dA]-NH2): the antagonist dissociation constant (Kb) was 0.0126 nM. For `CC(=O)N[C@H](Cc1ccc2ccccc2c1)C(=O)N[C@H](Cc1ccc(Cl)cc1)C(=O)N[C@H](Cc1cccnc1)C(=O)N[C@@H](CO)C(=O)N(C)[C@@H](Cc1ccc(O)cc1)C(=O)N[C@H](CCCNC(=O)NNC(=O)c1ccco1)C(=O)N[C@@H](CC(C)C)C(=O)N[C@@H](CCCCNC(C)C)C(=O)N1CCC[C@H]1C(=O)N[C@H](C)C(N)=O` [Example 52, NAc-D2-Nal^1 -D4ClPhe^2 -D3Pal^3 -Ser^4 -NMeTyr^5 -DOrn(N-epsilon-Azagly-2-Furoyl)^6 -Leu^7 -Lys(N-epsilon-Isopropyl)^8 -Pro^9 -DAla^10 NH2] (Ac-[d2Nal][dPhe(4-Cl)][d3Pal]S[NMeY][dOrn]([azaGly-2Furoyl])L[Lys(iPr)]P[dA]-NH2) the value was 0.0155 nM; for `CC(=O)N[C@H](Cc1ccc2ccccc2c1)C(=O)N[C@H](Cc1ccc(Cl)cc1)C(=O)N[C@H](Cc1cccnc1)C(=O)N[C@@H](CO)C(=O)N(C)[C@@H](Cc1ccc(O)cc1)C(=O)N[C@H](CCCCNC(=O)NNC(=O)c1cccnc1)C(=O)N[C@@H](CC(C)C)C(=O)N[C@@H](CCCCNC(C)C)C(=O)N1CCC[C@H]1C(=O)N[C@H](C)C(N)=O` [Example 3, NAc-D2Nal^1 -D4ClPhe^2 -D3Pal^3 -Ser^4 -NMeTyr^5 -DLys(N-epsilon-Azagly-Nicotinyl)^6 -Leu^7 -Lys(N-epsilon-Isopropyl)^8 -Pro^9 -DAla^10 NH2] (Ac-[d2Nal][dPhe(4-Cl)][d3Pal]S[NMeY][dK]([azaGly-Nicotinoyl])L[Lys(iPr)]P[dA]-NH2), 0.0049 nM. For `CC(=O)N[C@H](Cc1ccc2ccccc2c1)C(=O)N[C@H](Cc1ccc(Cl)cc1)C(=O)N[C@H](Cc1cccnc1)C(=O)N[C@@H](CO)C(=O)N(C)[C@@H](Cc1ccc(O)cc1)C(=O)N[C@H](CCCCNC(=O)[C@@H](Cc1c[nH]cn1)NC(=O)C1=C[C@@H](O)[C@@H](O)[C@H](O)C1)C(=O)N[C@@H](CC(C)C)C(=O)N[C@@H](CCCNC(=N)N)C(=O)N1CCC[C@H]1C(=O)N[C@H](C)C(N)=O` [Example 48h, NAc-D2Nal^1 -D4ClPhe^2 -D3Pal^3 -Ser^4 -NMeTyr^5 -DLys(N-epsilon-D-His-Shikimyl)^6 -Leu^7 -Arg^8 -Pro^9 -DAla^10 NH2] (Ac-[d2Nal][dPhe(4-Cl)][d3Pal]S[NMeY][dK]([dH-Shikimoyl])LRP[dA]-NH2) the value was 0.038 nM; for `CC(=O)N[C@H](Cc1ccc2ccccc2c1)C(=O)N[C@H](Cc1ccc(Cl)cc1)C(=O)N[C@H](Cc1cccnc1)C(=O)N[C@@H](CO)C(=O)N(C)[C@@H](Cc1ccc(O)cc1)C(=O)N[C@H](CCCCNC(=O)[C@@H](CO)NC(=O)c1ccoc1)C(=O)N[C@@H](CC(C)C)C(=O)N[C@@H](CCCNC(=N)N)C(=O)N1CCC[C@H]1C(=O)N[C@H](C)C(N)=O` [Example 65b, NAc-D2Nal^1 -D4ClPhe^2 -D3Pal^3 -Ser^4 -NMeTyr^5 -DLys(N-epsilon-DSer-3Furoyl)^6 -Leu^7 -Arg^8 -Pro^9 -DAla^10 NH2] (Ac-[d2Nal][dPhe(4-Cl)][d3Pal]S[NMeY][dK]([dS-X2])LRP[dA]-NH2), 0.00229 nM. Under `CC(=O)N[C@H](Cc1ccc2ccccc2c1)C(=O)N[C@H](Cc1ccc(Cl)cc1)C(=O)N[C@H](Cc1cccnc1)C(=O)N[C@@H](CO)C(=O)N(C)[C@@H](Cc1ccc(O)cc1)C(=O)N[C@H](CCCCNC(=O)NCCNC(=O)C1=C[C@@H](O)[C@@H](O)[C@H](O)C1)C(=O)N[C@@H](CC(C)C)C(=O)N[C@@H](CCCNC(=N)N)C(=O)N1CCC[C@H]1C(=O)N[C@H](C)C(N)=O` [Example 15, NAc-D2Nal^1 -D4ClPhe^2 -D3Pal^3 -Ser^4 -NMeTyr^5 -DLys[N-epsilon-(N'-Carbonyl-Diaminoethane-N"-Shikimyl)]^6 -Leu^7 -Arg^8 -Pro^9 -DAla^10 NH2] (Ac-[d2Nal][dPhe(4-Cl)][d3Pal]S[NMeY][dK]([CO-Ethylenediamine-Shikimoyl])LRP[dA]-NH2) stands 0.00282 nM.

`CC(=O)N[C@H](Cc1ccc2ccccc2c1)C(=O)N[C@H](Cc1ccc(Cl)cc1)C(=O)N[C@H](Cc1cccnc1)C(=O)N[C@@H](CO)C(=O)N(C)[C@@H](Cc1ccc(O)cc1)C(=O)N[C@H](CCCCNC(=O)[C@@H](Cc1cccnc1)NC(=O)C1=C[C@@H](O)[C@@H](O)[C@H](O)C1)C(=O)N[C@@H](CC(C)C)C(=O)N[C@@H](CCCNC(=N)N)C(=O)N1CCC[C@H]1C(=O)N[C@H](C)C(N)=O` [Example 38f, NAc-D2Nal^1 -D4ClPhe^2 -D3Pal^3 -Ser^4 -NMeTyr^5 -DLys(N-epsilon-D3Pal-Shikimyl)^6 -Leu^7 -Arg^8 -Pro^9 -DAla^10 NH2] (Ac-[d2Nal][dPhe(4-Cl)][d3Pal]S[NMeY][dK]([d3Pal-Shikimoyl])LRP[dA]-NH2): the antagonist equilibrium constant (Kb) was 0.0214 nM. Under `CC(=O)N[C@H](Cc1ccc2ccccc2c1)C(=O)N[C@H](Cc1ccc(Cl)cc1)C(=O)N[C@H](Cc1cccnc1)C(=O)N[C@@H](CO)C(=O)N(C)[C@@H](Cc1ccc(O)cc1)C(=O)N[C@H](CCCCNC(=O)CNC(=O)C1=C[C@@H](O)[C@@H](O)[C@H](O)C1)C(=O)N[C@@H](CC(C)C)C(=O)N[C@@H](CCCNC(=N)N)C(=O)N1CCC[C@H]1C(=O)N[C@H](C)C(N)=O` [Example 17, NAc-D2Nal^1 -D4ClPhe^2 -D3Pal^3 -Ser^4 -NMeTyr^5 -DLys(N-epsilon-Gly-Shikimyl)^6 -Leu^7 -Arg^8 -Pro^9 -DAla^10 NH2] (Ac-[d2Nal][dPhe(4-Cl)][d3Pal]S[NMeY][dK]([Gly-Shikimoyl])LRP[dA]-NH2) stands 0.00724 nM; under `CC(=O)N[C@H](Cc1ccc2ccccc2c1)C(=O)N[C@H](Cc1ccc(Cl)cc1)C(=O)N[C@H](Cc1cccnc1)C(=O)N[C@@H](CO)C(=O)N(C)[C@@H](Cc1ccc(O)cc1)C(=O)N[C@H](CCCCNC(=O)NNC(=O)c1cccnc1)C(=O)N[C@@H](CC(C)C)C(=O)N[C@@H](CCCNC(=N)N)C(=O)N1CCC[C@H]1C(=O)N[C@H](C)C(N)=O` [Example 37b, NAc-D2Nal^1 -D4ClPhe^2 -D3Pal^3 -Ser^4 -NMeTyr^5 -DLys(N-epsilon-Azagly-Nicotinyl)^6 -Leu^7 -Arg^8 -Pro^9 -DAla^10 NH2] (Ac-[d2Nal][dPhe(4-Cl)][d3Pal]S[NMeY][dK]([azaGly-Nicotinoyl])LRP[dA]-NH2), 0.00562 nM; under `CC(=O)N[C@H](Cc1ccc2ccccc2c1)C(=O)N[C@H](Cc1ccc(Cl)cc1)C(=O)N[C@H](Cc1cccnc1)C(=O)N[C@@H](CO)C(=O)N(C)[C@@H](Cc1ccc(O)cc1)C(=O)N[C@H](CCCCNC(=O)CCCCCNC(=O)CCNC(=O)c1cccnc1)C(=O)N[C@@H](CC(C)C)C(=O)N[C@@H](CCCCNC(C)C)C(=O)N1CCC[C@H]1C(=O)N[C@H](C)C(N)=O` [Example 19a, NAc-D2Nal-D4ClPhe^2 -D3Pal^3 -Ser^4 -NMeTyr^5 -DLys[N-epsilon-(N'-epsilon-Aminocaproyl)(N"-beta-Alanyl)-Nicotinyl]^6-Leu^7 -Lys(N-epsilon-Isopropyl)^8 -Pro^9 -DAla^10 NH2] (Ac-[d2Nal][dPhe(4-Cl)][d3Pal]S[NMeY][dK]([Ahx-βAla-Nicotinoyl])L[Lys(iPr)]P[dA]-NH2), 0.024 nM. On to `CC(=O)N[C@H](Cc1ccc2ccccc2c1)C(=O)N[C@H](Cc1ccc(Cl)cc1)C(=O)N[C@H](Cc1cccnc1)C(=O)N[C@@H](CO)C(=O)N(C)[C@@H](Cc1ccc(Nc2n[nH]c(N)n2)cc1)C(=O)N[C@H](CCCCNC(=O)NNC(=O)c1cccnc1)C(=O)N[C@@H](CC(C)C)C(=O)N[C@@H](CCCCNC(C)C)C(=O)N1CCC[C@H]1C(=O)N[C@H](C)C(N)=O` [Example 46, NAc-D2Nal^1 -D4ClPhe^2 -D3Pal^3 -Ser^4 -NMePhe(Atz)^5 -DLys(N-epsilon-Azagly-Nicotinyl)^6 -Leu^7 -Lys(N-epsilon-Isopropyl)^8 -Pro^9 -DAla^10 NH2] (Ac-[d2Nal][dPhe(4-Cl)][d3Pal]S[NMePhe(4-NH(5-NH2-Trz-3-yl))][dK]([azaGly-Nicotinoyl])L[Lys(iPr)]P[dA]-NH2), for which the Kb is 0.011 nM. `CC(=O)N[C@H](Cc1ccc2ccccc2c1)C(=O)N[C@H](Cc1ccc(Cl)cc1)C(=O)N[C@H](Cc1cccnc1)C(=O)N[C@@H](CO)C(=O)N(C)[C@@H](Cc1ccc(O)cc1)C(=O)N[C@H](CCCCNC(=O)[C@@H](CO)NC(=O)c1cnccn1)C(=O)N[C@@H](CC(C)C)C(=O)N[C@@H](CCCNC(=N)N)C(=O)N1CCC[C@H]1C(=O)N[C@H](C)C(N)=O` [Example 50g, NAc-D2Nal^1 -D4ClPhe^2 -D3Pal^3 -Ser^4 -NMeTyr^5 -DLys(N-epsilon-DSer-2-Pyrazinecarbonyl)^6 -Leu^7 -Arg^8 -Pro^9 -DAla^10 NH2] (Ac-[d2Nal][dPhe(4-Cl)][d3Pal]S[NMeY][dK]([dS-Pyrazinecarbonyl])LRP[dA]-NH2): the Kb is 0.0126 nM.
